Each structure is given as a SMILES string. Structures can show the parent of a compound that is named as a salt. Where only a bound is given, the exact number is not on record here.

For test [1], the system named is rat DIO model (Sprague Dawley rats on 45% High Fat diet). Description: 11 day rat DIO model, weight loss vs. vehicle. The test is classed as in vivo. As to conditions: for Rat @ 0.3 mpk sc (%) weight loss vs. vehicle: 0.3 mpk sc once a day for 11 days; for Rat @ 1.0 mpk sc (%) weight loss vs. vehicle: 1.0 mpk sc once a day for 11 days. From the text:
The objective of this study design is to investigate the efficacy of disclosed compounds in an 11 day rat DIO model used to screen compounds for pharmacologic efficacy on endpoints related to obesity and metabolism. Effects on body weight, food intake, hematology and blood chemistries were the primary readouts of this study design. Male Sprague Dawley rats, approximately 8 weeks of age, were ordered from a certified vendor and housed on irradiated corncob bedding in micro-isolator cages, on a 12-hour light-dark cycle (0700-1900) at 68-74° F. and 30-70% humidity. Rats were fed Research Diets D12451 (45% High Fat) and provided water ad libitum. Rats were received and housed in the facility for at least two or three weeks prior to start of test article administration. On Day −4 or −3, rats were randomized into study groups based on body weight and body weights were continued to be recorded daily for the duration of the study. Daily food intake was assessed starting on Study Day −2 by weighing the hopper including the food to avoid loss of food in transfer.
(§1) Compounds were formulated into a 100% DMSO stock (at 9 mg/mL) prior to the start, and further diluted into the target working concentration using the vehicle of 10% DMSO in water. Prior to test article administration, starting on Day −3 a dosing acclimation occurred with all animals receiving a subcutaneous injection of vehicle (10% DMSO) only for 3 days. Starting on Day 1, test compounds or vehicle were administered based on individual body weight, subcutaneously, once a day for 11 days. All animals were sacrificed on Day 11, approximately 2 hours following the final dosing on Day 11. After sacrifice, whole blood was collected and analyzed for hematology and blood chemistry parameters.
(§2) Compounds were tested for weight loss vs. vehicle at 0.3 and 1.0 mpk sc (mg per kg animal weight delivered subcutaneously), and the results are shown in Table 2 below.

Test [2] deals with T1, recombinant human MetAP2 (Homo sapiens, UniProt P50579).
T1 construct: Flag; made in house
Description: Recombinant human MetAP2 enzyme inhibition assay (MAS peptide / amino acid oxidase / Amplex Ultrared readout). The format is biochemical. The settings on record: Flag tagged human recombinant MetAP2, 25 minutes at 25° C. How it is done: Compounds are tested for their capacity to inhibit recombinant human MetAP2 activity using the following assay.
Flag tagged Human recombinant MetAP2 expressed and isolated for use as the enzyme source. 10 mM stock solutions of compounds were prepared in 100% DMSO and further diluted in 100% DMSO required concentration to 1 mM stocks. The stock compound solutions and DMSO vehicle controls were diluted to target final compound concentrations using assay buffer to a final concentration of 50 mM HEPES containing 100 mM NaCl, pH adjusted to 7.5. The MAS peptide was formulated to a 7.5 mM stock in distilled water and prior to use further diluted 1:4. […] 40 μl of enzyme was mixed with 100 μl of MnCl2 then further diluted in assay buffer to a final concentration of 16 μg/ml. To test for compound effect on MetAP2 enzyme activity, 5 μl of test compound, 10 μl of MAS substrate/amino acid oxidase mixture, 10 μl of MetAP2 was added to test wells in a 384 well black plate with blank wells containing no enzyme, replaced with 10 μl of assay buffer. All compounds were tested in duplicate on two occasions on the same day.
The plate was sealed with a TopSeal A cover and mixed briefly on an orbital mixer at 900 rpm. The plate was incubated for a further 25 minutes at 25° C. A 5× stock of Amplex buffer was prepared (0.25 M sodium phosphate, pH 7.4) and stored at 4° C. […] Horse radish peroxidase was diluted in […] of Amplex buffer, 100 μl of this was combined with 50 μl of Amplex Ultrared in […] of 1× Amplex buffer to generate sufficient detection reagent for a 384 well plate. 25 μl detection reagent was added to each well of the test plate, which was re-sealed and mixed briefly on an orbital shaker. The plate was transferred to an Envision Multi-label reader and RFU measured corresponding to excitation 531 nm and emission 595 nm. At the end of the MetAP2 incubation 25 μl Amplex/HRP mixture per well was added and the plate read plate on a plate reader.

For test [3], the system named is Diet Induced Obese (DIO) C57BL/6 mice. Nature of the test: 10 day DIO mouse model, weight loss vs. vehicle. The format is in vivo. The settings on record: 240 h; for inhibition in vivo at 0.3 mg/kg: 0.3 mpk sc once a day for 10 days; for inhibition in vivo at 1 mg/kg: 1.0 mpk sc once a day for 10 days.
Excerpt: The objective of this study design was to investigate the efficacy of disclosed compounds in a 10 day DIO mouse model. Effects on body weight, food intake, hematology and blood chemistry were the primary readouts of this study design. Male, Diet Induced Obese (DIO) C57BL/6 mice, 19-21 weeks of age (13-15 weeks on high fat diet) were ordered from a certified vendor and upon receipt were housed on irradiated corncob bedding in micro-isolator cages on a 12-hour light-dark cycle (0700-1900) at 68-74° F. and 30-70% humidity. Mice were fed Research Diets D12492 (60% Kcal fat, 20% Kcal carbohydrate and 20% protein) and provided water ad libitum. DIO mice were received and housed in the facility for approximately two weeks prior to the start of test article administration. On Day −4 or −3, mice were randomized into study groups based on body weight and body weights were continued to be recorded daily for the duration of the study. Daily food intake was assessed starting on Study Day −2 by weighing of the food with hopper together to avoid loss of food in transfer.
as §1, with “for 10” for “for 11”, “All mice” for “All animals”, “11, 24” for “11, approximately 2”, “Day 10.” for “Day 11.”
as §2

T1 sequence (P50579 whole entry): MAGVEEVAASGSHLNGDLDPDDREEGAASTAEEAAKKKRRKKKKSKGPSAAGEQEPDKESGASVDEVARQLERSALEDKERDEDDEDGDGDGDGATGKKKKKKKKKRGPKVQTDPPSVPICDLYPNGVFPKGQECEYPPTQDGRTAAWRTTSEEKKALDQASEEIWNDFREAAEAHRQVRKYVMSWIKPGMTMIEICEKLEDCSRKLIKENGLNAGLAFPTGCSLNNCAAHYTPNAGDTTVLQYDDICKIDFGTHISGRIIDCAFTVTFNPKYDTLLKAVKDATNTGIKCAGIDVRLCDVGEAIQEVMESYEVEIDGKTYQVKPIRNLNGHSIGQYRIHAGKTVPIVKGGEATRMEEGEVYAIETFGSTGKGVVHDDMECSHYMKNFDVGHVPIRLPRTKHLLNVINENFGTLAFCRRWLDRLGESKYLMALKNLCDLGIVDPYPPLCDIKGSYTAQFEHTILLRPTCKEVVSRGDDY

As usually defined, the IC50 is the concentration that gives 50% inhibition. The term inhibition in vivo denotes the relative decrease from the control value, in per cent. As to `CO[C@@H]1[C@H](OC(=O)NCC(C)(C)c2cn(C[C@H]3CCCN3C)cn2)CC[C@]2(CO2)[C@H]1[C@@]1(C)O[C@@H]1CC=C(C)C` [Example 38, (3R,4S,5S,6R)-5-methoxy-4-((2R,3R)-2-methyl-3-(3-methylbut-2-en-1-yl)oxiran-2-yl)-1-oxaspiro[2.5]octan-6-yl (2-methyl-2-(1-(((R)-1-methylpyrrolidin-2-yl)methyl)-1H-imidazol-4-yl)propyl)carbamate], the “Rat @ 0.3 mpk sc (%) weight loss vs. vehicle” value in test [1] is −1.7%. Besides, the IC50 in test [2] is 50 to 500 nM. In test [3], the inhibition in vivo at 0.3 mg/kg amounted to 5% and the inhibition in vivo at 1 mg/kg was 5.5%.
In the case of `CO[C@@H]1[C@H](OC(=O)N[C@H](c2cn(C[C@@H]3CCN(C)C3)cn2)C(C)C)CC[C@]2(CO2)[C@H]1[C@@]1(C)O[C@@H]1CC=C(C)C` [Example 13, (3R,4S,5S,6R)-5-methoxy-4-((2R,3R)-2-methyl-3-(3-methylbut-2-enyl)oxiran-2-yl)-1-oxaspiro[2.5]octan-6-yl (S)-2-methyl-1-(1-(((R)-1-methylpyrrolidin-3-yl)methyl)-1H-imidazol-4-yl)propylcarbamate], in test [1], the “Rat @ 0.3 mpk sc (%) weight loss vs. vehicle” value is 11.5% and the “Rat @ 1.0 mpk sc (%) weight loss vs. vehicle” value worked out at 22%. Also, the IC50 in test [2] lay within 50 to 500 nM. Besides, the inhibition in vivo at 0.3 mg/kg in test [3] was 8.2%.
`CO[C@@H]1[C@H](OC(=O)N[C@@H](C)Cc2noc(=O)[nH]2)CC[C@]2(CO2)[C@H]1[C@@]1(C)O[C@@H]1CC=C(C)C` [Example 28, (3R,4S,5S,6R)-5-methoxy-4-((2R,3R)-2-methyl-3-(3-methylbut-2-en-1-yl)oxiran-2-yl)-1-oxaspiro[2.5]octan-6-yl ((S)-1-(5-oxo-4,5-dihydro-1,2,4-oxadiazol-3-yl)propan-2-yl)carbamate]: in test [1], the “Rat @ 0.3 mpk sc (%) weight loss vs. vehicle” value is given as −1.4%. In test [2], the IC50 is less than 50 nM. Besides, in test [3], the inhibition in vivo at 0.3 mg/kg was -2.3% and the inhibition in vivo at 1 mg/kg was determined as 4.2%.
For the compound `CO[C@@H]1[C@H](OC(=O)N[C@H](c2cn(C[C@H]3CCCN3C)cn2)C(C)C)CC[C@]2(CO2)[C@H]1[C@@]1(C)O[C@@H]1CC=C(C)C` [Example 16, (3R,4S,5S,6R)-5-methoxy-4-((2R,3R)-2-methyl-3-(3-methylbut-2-enyl)oxiran-2-yl)-1-oxaspiro[2.5]octan-6-yl (S)-2-methyl-1-(1-(((R)-1-methylpyrrolidin-2-yl)methyl)-1H-imidazol-4-yl)propylcarbamate], the “Rat @ 0.3 mpk sc (%) weight loss vs. vehicle” value in test [1] stood at 2.8%. Moreover, the IC50 in test [2] was 50 to 500 nM. For the same compound, the inhibition in vivo at 0.3 mg/kg in test [3] was 6.6%.
As for `CO[C@@H]1[C@H](OC(=O)N[C@@H](Cc2noc(=O)[nH]2)C(C)C)CC[C@]2(CO2)[C@H]1[C@@]1(C)O[C@@H]1CC=C(C)C` [Example 27, (3R,4S,5S,6R)-5-methoxy-4-((2R,3R)-2-methyl-3-(3-methylbut-2-enyl)oxiran-2-yl)-1-oxaspiro[2.5]octan-6-yl (S)-3-methyl-1-(5-oxo-4,5-dihydro-1,2,4-oxadiazol-3-yl)butan-2-ylcarbamate], in test [1], the “Rat @ 0.3 mpk sc (%) weight loss vs. vehicle” value is reported as −0.8% and the “Rat @ 1.0 mpk sc (%) weight loss vs. vehicle” value is 1.9%. In addition, the IC50 in test [2] fell in the range of 50 to 500 nM. Besides, the inhibition in vivo at 1 mg/kg in test [3] worked out at 5.4%.
`CO[C@@H]1[C@H](OC(=O)N[C@H](c2nnc(N)o2)C(C)C)CC[C@]2(CO2)[C@H]1[C@@]1(C)O[C@@H]1CC=C(C)C` [Example 1, (3R,4S,5S,6R)-5-methoxy-4-((2R,3R)-2-methyl-3-(3-methylbut-2-enyl)oxiran-2-yl)-1-oxaspiro[2.5]octan-6-yl (S)-1-(5-amino-1,3,4-oxadiazol-2-yl)-2-methylpropylcarbamate]: the half-maximal inhibitory concentration (IC50) in test [2] is less than 50 nM. Besides, in test [3], the inhibition in vivo at 0.3 mg/kg turned out to be 2.6% and the inhibition in vivo at 1 mg/kg came out at 2.1%.
With `CO[C@@H]1[C@H](OC(=O)N[C@H](c2cnn(C[C@H]3CCN(C)C3)c2)C(C)C)CC[C@]2(CO2)[C@H]1[C@@]1(C)O[C@@H]1CC=C(C)C` [Example 22, (3R,4S,5S,6R)-5-methoxy-4-((2R,3R)-2-methyl-3-(3-methylbut-2-enyl)oxiran-2-yl)-1-oxaspiro[2.5]octan-6-yl (S)-2-methyl-1-(1-(((S)-1-methylpyrrolidin-3-yl)methyl)-1H-pyrazol-4-yl)propylcarbamate formate], in test [2], the IC50 fell in the range of 50 to 500 nM. Further, the inhibition in vivo at 0.3 mg/kg in test [3] amounted to 4.7%.
Taken in the same sequence, the figures for `CO[C@@H]1[C@H](OC(=O)N[C@H](c2cn(CCN3CCOCC3)cn2)C(C)C)CC[C@]2(CO2)[C@H]1[C@@]1(C)O[C@@H]1CC=C(C)C` [Example 17, (3R,4S,5S,6R)-5-methoxy-4-((2R,3R)-2-methyl-3-(3-methylbut-2-enyl)oxiran-2-yl)-1-oxaspiro[2.5]octan-6-yl (S)-2-methyl-1-(1-(2-morpholinoethyl)-1H-imidazol-4-yl)propylcarbamate] were 50 to 500 nM and 3.2%.
Turning to `CO[C@@H]1[C@H](OC(=O)N[C@H](c2nnc[nH]2)C(C)C)CC[C@]2(CO2)[C@H]1[C@@]1(C)O[C@@H]1CC=C(C)C` [Example 9, (3R,4S,5S,6R)-5-methoxy-4-((2R,3R)-2-methyl-3-(3-methylbut-2-enyl)oxiran-2-yl)-1-oxaspiro[2.5]octan-6-yl (S)-2-methyl-1-(4H-1,2,4-triazol-3-yl)propylcarbamate], the IC50 in test [2] is less than 50 nM. Besides, the inhibition in vivo at 0.3 mg/kg in test [3] was 2.1%.
For the compound `CO[C@@H]1[C@H](OC(=O)N[C@H](Cc2nnc(N)o2)C(C)C)CC[C@]2(CO2)[C@H]1[C@@]1(C)O[C@@H]1CC=C(C)C` [Example 32, (3R,4S,5S,6R)-5-methoxy-4-((2R,3R)-2-methyl-3-(3-methylbut-2-enyl)oxiran-2-yl)-1-oxaspiro[2.5]octan-6-yl (R)-1-(5-amino-1,3,4-oxadiazol-2-yl)-3-methylbutan-2-ylcarbamate], the IC50 in test [2] is less than 50 nM. Besides, in test [3], the inhibition in vivo at 0.3 mg/kg came to 3.9% and the inhibition in vivo at 1 mg/kg stood at 0.8%.

Source of the values: patent publication US20190169181A1, “FUMAGILLOL COMPOUNDS AND METHODS OF MAKING AND USING SAME” (Zafgen, Inc., priority 2016, published 2019).
